Test results: patent publication US8846012B2, “Melanin production inhibitor” (Pola Chemical Industries Inc., priority 2008, dated 2014)

Test system: normal human melanocytes
Assay: Melanin production inhibition test using cultured normal human melanocytes (14C-thiouracil incorporation)
Assay type: cell-based
Settings: control = 100%; for activity at 5 µM: addition amount 5.0 μM; for activity at 20 µM: addition amount 20 μM; for activity at 10 µM: addition amount 10 μM; for activity at 3.1 µM: addition amount 3.1 μM; for activity at 1.6 µM: addition amount 1.6 μM; for activity at 8 µM: addition amount 8.0 μM
Experimental: The inhibitory effect on melanin production of the melanin production inhibitor of the present invention can be measured using thiouracil which is incorporated specifically into cells in a melanin synthesis process in the cells. For example, the amount of melanin production can be measured by measuring an amount of thiouracil incorporated into cells by measuring an amount of radiation with radiolabeled thiouracil.
The inhibitory effect on melanin production of Compound 1 was evaluated using 2-thiouracil (^14C-labeled 2-thiouracil was used in this test) which is incorporated specifically into melanin in an intracellular melanin synthesis process. Complete medium for culture of melanocytes (manufactured by Kurabo Industries Ltd.) was added to 15 wells in a 24-well plate in an amount of 2 mL per well, and normal human melanocytes (manufactured by Kurabo Industries Ltd.) were seeded into the wells at a concentration of 1.5×10^4 cells/cm^2. The cells were cultured in a 5% carbon dioxide atmosphere at 37° C. for 24 hours. Thereafter, the medium in all the wells was exchanged under the following conditions: fresh complete medium for culture of melanocytes (control) was used in three wells; each of complete medium for culture of melanocytes, which including Compound 1 at concentrations of 1.0 μM, 2.0 μM, and 4.0 μM, was used in a total of nine wells including three wells for each concentration; and complete medium for culture of melanocytes, each of which including arbutin (positive control) known as a melanin production inhibitor at a concentration of 0.5 mM (500 μM), was used in the other three wells. Further, 2-[2-^14C]thiouracil (^14C-labeled thiouracil) was added to each of these 15 wells at 0.25×10^−6 Ci (curie). Then, the cells were cultured for further 3 days under the same conditions as the above. After the completion of culture, the culture medium was removed from the wells, and the cells were washed with phosphate buffered physiological saline (PBS) and then separated from the bottoms of the wells with medium including trypsin and EDTA to prepare cell suspensions, followed by centrifugation to collect the cells. The number of the cells was counted using a hemocytometer. Thereafter, the amounts of ^14C-thiouracil in the cells collected from each well (0.25×10^−6 Ci) were measured using a liquid scintillation counter (ALOKA CO., LTD.). The percentages of an amount of radioactivity in the cells cultured in the medium including the test substances with respect to an amount of radioactivity in the cells collected from the well of the control were calculated as amounts of melanin (%). That is, as the amount of radioactivity incorporated into the cells is smaller, the amount of melanin is evaluated to be smaller, i.e., the melanin inhibition effect of the component added is evaluated to be larger.
Inhibitory effects on melanin production of Compounds 2 to 39 (however, the effects of Compound 9 and 15 were not measured) were examined in the same procedure as in Test Example 1.
These were examined in the same procedure as in Test Example 1.
Further, the results of melanin production inhibition by treatment with the respective test compounds, determined in the same procedure as in Test Example 1, are also shown in the table.

[1] = Homo sapiens, Melanocyte, Table 2

CC(c1ccccc1)(c1ccc(O)cc1)c1ccc(O)cc1 [4,4′-(1-Phenylidene)-bisphenol]
Amount of melanin (Table 3, addition amount 3.0 μM): 44.8 ± 1.0%

Oc1ccc(C2(c3ccc(O)cc3)CCCCC2)cc1 [4,4′-Cyclohexylidenebisphenol]
activity at 3 µM (Homo sapiens, Melanocyte, Table 3, addition amount 3.0 μM): 38.3 ± 2.5%

CC(c1ccc(O)cc1)c1ccc(O)cc1 [4,4′-Ethylidenebisphenol]
activity at 25 µM (Homo sapiens, Melanocyte, Table 3, addition amount 25 μM): 30.5 ± 6.1%

Oc1ccc(C(c2ccccc2)(c2ccccc2)c2ccccc2)cc1 [4-Tritylphenol]
activity at 1.25 µM (Homo sapiens, Melanocyte, Table 3, addition amount 1.25 μM): 27 ± 0.4%

OC[C@H]1O[C@@H](Oc2ccc(O)cc2)[C@H](O)[C@@H](O)[C@@H]1O [Arbutin, arbutin, reference compound]
activity at 500 µM (Homo sapiens, Melanocyte, addition amount 500 μM, mean ± SD of three samples): 64.6 ± 2.3%

c1ccc(C(c2ccccc2)(c2ccccc2)N2CCNCC2)cc1 [Compound 7, 1-(triphenylmethyl)piperazine]
activity at 6 µM (Homo sapiens, Melanocyte, Table 2, addition amount 6.0 μM): 51.1 ± 5.8%

c1ccc(C(c2ccccc2)(c2ccccc2)N2CCOCC2)cc1 [Compound 8, N-(triphenylmethyl)morpholine]
activity at 2.5 µM (Homo sapiens, Melanocyte, Table 2, addition amount 2.5 μM): 39.2 ± 10.7%

c1ccc(C(c2ccccc2)(c2ccncc2)N2CCCCC2)cc1 [Compound 10, 1-{[diphenyl(4-pyridyl)]methyl}piperidine]
activity at 0.3 µM (Homo sapiens, Melanocyte, Table 2, addition amount 0.3 μM): 77.3 ± 0.4%

O=C1CCC(=O)N1C(c1ccccc1)(c1ccccc1)c1ccccc1 [Compound 11, 1-(triphenylmethyl)succinimide]
activity at 15 µM (Homo sapiens, Melanocyte, Table 2, addition amount 15 μM): 53.7 ± 0.9%

O[C@@H]1CCN(C(c2ccccc2)(c2ccccc2)c2ccccc2)C1 [Compound 12, (R)-1-triphenylmethyl-3-pyrrolidinol]
activity at 5 µM [1]: 62.9 ± 3.7%

OC(c1ccccc1)c1ccc2ccccc2c1 (stereo not shown) [Compound 13, [(naphthyl)phenyl]methanol]
activity at 20 µM [1]: 68.7 ± 5.2%

OC(c1ccccc1)(c1ccccn1)c1ccccn1 [Compound 16, di(2-pyridyl)phenylmethanol]
activity at 100 µM (Homo sapiens, Melanocyte, Table 2, addition amount 100 μM): 91.5 ± 4.6%

COc1ccc(C(O)(c2ccccc2)c2ccccc2)cc1 [Compound 17, [diphenyl(4-methoxyphenyl)]methanol]
activity at 10 µM [1]: 37 ± 1.5%

COc1ccc(C(O)(c2ccccc2)c2ccc(OC)cc2)cc1 [Compound 18, [bis(4-methoxyphenyl)phenyl]methanol]
activity at 10 µM [1]: 55.3 ± 3.4%

COc1ccc(C(c2ccccc2)(c2ccccc2)N2CCCCC2)cc1 [Compound 19, 1-[[(4-methoxyphenyl)diphenyl]methyl]piperidine]
activity at 3.1 µM [1]: 51.5 ± 5.7%

COc1ccc(C(c2ccccc2)(c2ccc(OC)cc2)N2CCCCC2)cc1 [Compound 20, 1-[[bis(4-methoxyphenyl)phenyl]methyl]piperidine]
activity at 3.1 µM [1]: 73.2 ± 3.2%

COc1ccc(C(c2ccc(OC)cc2)(c2ccc(OC)cc2)N2CCCCC2)cc1 [Compound 21, 1-[tris(4-methoxyphenyl)methyl]piperidine]
activity at 12.5 µM (Homo sapiens, Melanocyte, Table 2, addition amount 12.5 μM): 53.5 ± 0.4%

Cc1ccc(C(O)(c2ccc(C)cc2)c2ccc(C)cc2)cc1 [Compound 22, tris(4-methylphenyl)methanol]
activity at 1.6 µM [1]: 50.6 ± 2%

Cc1ccc(C(O)(c2ccccc2)c2ccc(C)cc2)cc1 [Compound 23, [bis(4-methylphenyl)phenyl]methanol]
activity at 3.1 µM [1]: 47.2 ± 0.2%

Cc1ccc(C(O)(c2ccccc2)c2ccccc2)cc1 [Compound 24, [diphenyl(4-methylphenyl)]methanol]
activity at 3.1 µM [1]: 51.6 ± 1.6%

Cc1ccc(C(c2ccccc2)(c2ccccc2)N2CCCCC2)cc1 [Compound 25, [[diphenyl(4-methylphenyl)]methyl]piperidine]
activity at 1.6 µM [1]: 48 ± 1.9%

Cc1ccc(C(c2ccc(C)cc2)(c2ccc(C)cc2)N2CCCCC2)cc1 [Compound 27, 1-[tris(4-methylphenyl)methyl]piperidine]
activity at 3.1 µM [1]: 47.5 ± 0.6%

c1ccc(C(c2ccccc2)N2CCCC2)cc1 [Compound 28, 1-(diphenylmethyl)pyrrolidine]
activity at 60 µM (Homo sapiens, Melanocyte, Table 2, addition amount 60 μM): 77.3 ± 5.6%

Cc1ccc(C(c2ccc(C)cc2)N2CCCC2)cc1 [Compound 29, 1-[bis(4-methylphenyl)methyl]pyrrolidine]
activity at 20 µM [1]: 49 ± 1.9%

CCNC(c1ccccc1)(c1ccccc1)c1ccccc1 [Compound 30, N-(triphenylmethyl)-N-ethylamine]
activity at 8 µM [1]: 41.4 ± 0.7%

COc1ccc(C(OCCO)(c2ccccc2)c2ccccc2)cc1 [Compound 31, 2-[[diphenyl(4-methoxyphenyl)]methyloxy]ethanol]
activity at 3.1 µM [1]: 37.6 ± 3.3%

COc1ccc(C(OCCO)(c2ccccc2)c2ccc(OC)cc2)cc1 [Compound 32, 2-[bis(4-methoxyphenyl)phenylmethyloxy]ethanol]
activity at 3.1 µM [1]: 58.8 ± 7.1%

COc1ccc(C(NCCO)(c2ccccc2)c2ccccc2)cc1 [Compound 33, 2-[[diphenyl(4-methoxyphenyl)]methylamino]ethanol]
activity at 5 µM [1]: 67.7 ± 5.1%

COc1ccc(C(NCCO)(c2ccccc2)c2ccc(OC)cc2)cc1 [Compound 34, 2-[[bis(4-methoxyphenyl)phenyl]methylamino]ethanol]
activity at 5 µM [1]: 71.4 ± 1.9%

COc1ccc(C(OCCN)(c2ccccc2)c2ccccc2)cc1 [Compound 35, 2-[[diphenyl (4-methoxyphenyl)]methyloxy]ethylamine]
activity at 5 µM [1]: 80.4 ± 8.8%

COc1ccc(C(OCCN)(c2ccccc2)c2ccc(OC)cc2)cc1 [Compound 36, 2-[[bis(4-methoxyphenyl)phenyl]methyloxy]ethylamine]
activity at 10 µM [1]: 71.7 ± 5.1%

OCCN(CCO)C(c1ccccc1)(c1ccccc1)c1ccccc1 [Compound 37, N,N-[bis(2-hydroxyethyl)]-N-(triphenylmethyl)amine]
activity at 4 µM (Homo sapiens, Melanocyte, Table 2, addition amount 4.0 μM): 69.6 ± 3.9%

OCC(O)COC(c1ccccc1)(c1ccccc1)c1ccccc1 (stereo not shown) [Compound 38, 1,2-dihydroxy-3-(triphenylmethyloxy)propane]
activity at 8 µM [1]: 75.6 ± 0.2%

O=C(O)[C@H](CO)NC(c1ccccc1)(c1ccccc1)c1ccccc1 [Compound 39, N-(triphenylmethyl) serine]
activity at 8 µM [1]: 54.9 ± 5.5%
